Calls of active or inactive are those of the source.
Assays:
Fatty acid synthase [1] = molecular target: T1, Fatty acid synthase (Homo sapiens, UniProt P49327); assay: inhibition of human FAS-TE enzyme activity – biochemical, endpoint fluorescence intensity, uHTS hits, dose response (AID 624327); type: functional;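 also: fluorescence from hydrolysis of an O-methyl fluorescein acyl ester substrate by the enzyme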
Fatty acid synthase [2] = molecular target: T1, Fatty acid synthase; assay: inhibition of human FAS-TE enzyme activity – biochemical, kinetic fluorescence intensity, dose response (AID 624326); type: functional;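 also: rate of fluorescence rise from hydrolysis of a fluorogenic O-methyl fluorescein ester substrate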
[3] = molecular target: T2, RNA-binding protein pos-1 (Caenorhabditis elegans, UniProt G5EF15); assay: disruptors of C. elegans POS-1 RNA interaction – biochemical, fluorescence polarization, dose response (AID 1964);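 also: purified POS-1 fused to maltose binding protein made in E. coli; potency of compounds blocking POS-1 binding to fluorescent RNA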
T2 sequence (G5EF15 whole entry): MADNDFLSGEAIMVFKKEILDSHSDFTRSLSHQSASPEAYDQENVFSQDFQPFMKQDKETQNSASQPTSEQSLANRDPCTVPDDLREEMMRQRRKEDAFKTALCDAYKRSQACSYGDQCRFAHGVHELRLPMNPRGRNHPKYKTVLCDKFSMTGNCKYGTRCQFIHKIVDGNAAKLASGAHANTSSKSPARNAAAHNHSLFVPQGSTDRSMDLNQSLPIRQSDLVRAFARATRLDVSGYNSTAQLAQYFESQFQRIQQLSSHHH

[4] = molecular target: T3, Zinc finger protein mex-5 (Caenorhabditis elegans, UniProt Q9XUB2); assay: potency of MEX-5 RNA-binding blockers – biochemical, C. elegans, fluorescence polarization, dose response (AID 1960)
T3 sequence (Q9XUB2 whole entry): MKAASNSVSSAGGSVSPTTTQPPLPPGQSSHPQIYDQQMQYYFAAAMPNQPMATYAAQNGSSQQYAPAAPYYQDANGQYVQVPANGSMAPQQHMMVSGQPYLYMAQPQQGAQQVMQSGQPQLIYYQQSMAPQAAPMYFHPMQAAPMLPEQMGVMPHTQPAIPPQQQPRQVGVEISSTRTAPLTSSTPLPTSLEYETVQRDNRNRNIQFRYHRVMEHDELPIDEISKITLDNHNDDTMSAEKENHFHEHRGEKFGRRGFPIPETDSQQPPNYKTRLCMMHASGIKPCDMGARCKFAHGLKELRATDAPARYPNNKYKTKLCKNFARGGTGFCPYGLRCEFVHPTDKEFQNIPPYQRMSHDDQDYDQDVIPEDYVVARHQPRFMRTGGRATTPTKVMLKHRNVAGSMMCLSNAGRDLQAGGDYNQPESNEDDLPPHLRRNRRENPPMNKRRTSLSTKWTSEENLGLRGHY

[5] = molecular target: T4, Endoribonuclease toxin MazF (Escherichia coli K-12, UniProt P0AE70); assay: activation of MazEF endoribonuclease cleavage – biochemical, fluorescence, single-stranded RNA substrate, uHTS hits, dose response (AID 588481); type: functional
T4 sequence (P0AE70 whole entry): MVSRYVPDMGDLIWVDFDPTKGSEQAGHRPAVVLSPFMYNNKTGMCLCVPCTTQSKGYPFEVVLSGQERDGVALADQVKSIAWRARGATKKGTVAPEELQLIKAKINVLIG

[6] = molecular target: T5, Corticotropin-releasing factor receptor 2/Corticotropin-releasing factor-binding protein (Homo sapiens, UniProt P24387+Q13324); assay: activators of CRF receptor 2 with binding protein – uHTS hits, confirmation (AID 602473); type: functional; conditions: read-out: EC50_Mean
T5 sequence (Q13324 whole entry): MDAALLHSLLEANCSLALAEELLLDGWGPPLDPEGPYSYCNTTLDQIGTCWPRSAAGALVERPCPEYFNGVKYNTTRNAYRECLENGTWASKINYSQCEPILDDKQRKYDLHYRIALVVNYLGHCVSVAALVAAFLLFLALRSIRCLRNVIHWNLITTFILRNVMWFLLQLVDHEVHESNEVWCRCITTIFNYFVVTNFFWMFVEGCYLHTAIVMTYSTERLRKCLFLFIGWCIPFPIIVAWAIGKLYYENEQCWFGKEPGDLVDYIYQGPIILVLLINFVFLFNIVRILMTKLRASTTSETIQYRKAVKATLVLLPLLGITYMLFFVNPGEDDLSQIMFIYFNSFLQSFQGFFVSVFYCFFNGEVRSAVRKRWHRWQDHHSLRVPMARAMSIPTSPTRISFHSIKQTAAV
T5 sequence (P24387 whole entry): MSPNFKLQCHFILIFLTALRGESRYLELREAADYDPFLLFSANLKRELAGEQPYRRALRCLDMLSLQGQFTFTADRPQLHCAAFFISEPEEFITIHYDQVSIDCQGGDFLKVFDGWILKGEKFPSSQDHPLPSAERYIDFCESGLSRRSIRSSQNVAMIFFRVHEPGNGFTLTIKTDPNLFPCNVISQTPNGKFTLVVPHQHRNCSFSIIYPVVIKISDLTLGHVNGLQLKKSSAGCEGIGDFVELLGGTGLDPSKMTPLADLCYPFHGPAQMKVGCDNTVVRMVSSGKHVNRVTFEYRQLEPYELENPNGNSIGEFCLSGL

[7] = molecular target: T4, Endoribonuclease toxin MazF; assay: substrate-only fluorescence increase artefacts – biochemical, single-stranded RNase substrate, counter-screen for MazEF activator project, dose response (AID 588502); type: functional
[8] = microbe, parasite or virus in culture; type: functional; conditions: Mycobacterium tuberculosis
[9] = molecular target: T6, Apoptotic protease-activating factor 1 (Homo sapiens, UniProt O14727); type: functional
T6 sequence (O14727 whole entry): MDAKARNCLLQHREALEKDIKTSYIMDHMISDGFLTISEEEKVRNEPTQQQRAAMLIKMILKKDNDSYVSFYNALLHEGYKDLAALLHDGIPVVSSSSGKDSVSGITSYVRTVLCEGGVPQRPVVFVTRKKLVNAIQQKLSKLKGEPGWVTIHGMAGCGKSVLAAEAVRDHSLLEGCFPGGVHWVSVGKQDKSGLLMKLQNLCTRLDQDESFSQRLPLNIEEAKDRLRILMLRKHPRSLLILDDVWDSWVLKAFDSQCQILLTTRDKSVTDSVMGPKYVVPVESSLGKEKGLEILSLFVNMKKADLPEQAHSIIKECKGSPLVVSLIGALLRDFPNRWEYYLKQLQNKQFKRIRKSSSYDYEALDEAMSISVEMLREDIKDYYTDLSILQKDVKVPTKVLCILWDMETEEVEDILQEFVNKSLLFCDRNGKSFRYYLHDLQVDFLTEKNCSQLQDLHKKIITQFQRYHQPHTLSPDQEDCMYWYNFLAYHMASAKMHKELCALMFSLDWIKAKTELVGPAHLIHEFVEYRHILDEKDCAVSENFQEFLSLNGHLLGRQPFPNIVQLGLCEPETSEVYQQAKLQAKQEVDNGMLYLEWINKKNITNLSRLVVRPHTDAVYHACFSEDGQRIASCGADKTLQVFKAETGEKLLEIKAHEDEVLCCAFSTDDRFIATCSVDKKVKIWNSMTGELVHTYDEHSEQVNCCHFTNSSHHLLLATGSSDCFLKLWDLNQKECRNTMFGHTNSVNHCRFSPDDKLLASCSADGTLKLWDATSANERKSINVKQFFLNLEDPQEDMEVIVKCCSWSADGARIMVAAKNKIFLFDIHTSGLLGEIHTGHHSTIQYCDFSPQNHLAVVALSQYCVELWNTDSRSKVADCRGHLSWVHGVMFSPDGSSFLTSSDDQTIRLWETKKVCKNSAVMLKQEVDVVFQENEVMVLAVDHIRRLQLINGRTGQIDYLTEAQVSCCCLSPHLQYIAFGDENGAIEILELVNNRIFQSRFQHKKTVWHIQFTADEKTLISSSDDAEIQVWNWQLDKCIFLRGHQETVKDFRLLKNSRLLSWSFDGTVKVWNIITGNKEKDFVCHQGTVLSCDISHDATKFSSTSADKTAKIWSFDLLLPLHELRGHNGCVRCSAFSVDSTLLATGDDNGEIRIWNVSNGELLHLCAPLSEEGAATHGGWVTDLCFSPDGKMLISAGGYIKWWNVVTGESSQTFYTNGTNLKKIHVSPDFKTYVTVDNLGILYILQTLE

[10] = Luminescence Cell-Based Dose Response HTS to Identify Inhibitors of 5'UTR Stem-Loop Driven Prion Protein mRNA Translation in H4 Neuroglioblastoma Cells. [Related pubchem assays: 1827 (Project Summary), 1813 (Primary HTS)]; type: functional
[11] = alpha-synuclein stem-loop luciferase translation blockers – H4 neuroglioma cells, luminescence, confirmation (AID 1988); type: functional, cell-based
[12] = Luminescence Cell-Based Dose Retest to Confirm Inhibitors of Cancer Stem Cells. [Related pubchem assays (depositor defined):AID2717, AID2721]; type: functional; conditions: Homo sapiens
[13] = molecular target: T7, Ubiquitin-conjugating enzyme E2 N (Homo sapiens, UniProt P61088); type: functional;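 also: Dose-response confirmation in a TR-FRET assay detecting UBC13-driven polyubiquitin chain formation, inhibition measured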
T7 sequence (P61088 whole entry): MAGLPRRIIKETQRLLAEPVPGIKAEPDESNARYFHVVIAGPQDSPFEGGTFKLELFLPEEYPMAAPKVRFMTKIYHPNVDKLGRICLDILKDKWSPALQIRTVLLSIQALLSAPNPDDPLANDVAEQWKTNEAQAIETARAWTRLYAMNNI

[14] = luciferase reporter signal suppression in cells – H4 neuroglioma cells, luminescence, dose response (AID 1990); type: functional, cell-based
[15] = viability of HCT116 lacking mutant beta-catenin – cell-based, human colon tumor, dose response (AID 1045); type: functional;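 also: HCT116 colon tumor cells with beta catenin knocked out; cells exposed to compound for 60 hours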
[16] = molecular target: Heat shock protein HSP 90-alpha (Homo sapiens, UniProt P07900); type: functional, organism-based
[17] = viability of PTEN-deleted HCT116 cells – cell-based, HCT116 PTEN knockout, dose response (AID 1047); type: functional;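 also: HCT116 colon tumor cells with PTEN knocked out; cells exposed to compound for 60 hours before readout; potency for loss of cell viability measured by luminescence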
INS1 = assay: INS-1E survival protection against cytokine death – cell-based, luminescence, retest, dose response (AID 449756); type: functional; conditions: Rattus norvegicus;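 also: cell death triggered by IL-1 beta plus TNF-alpha plus IFN-gamma mixture; protective hits raise ATP signal compared with cytokine alone wells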
[18] = blockers of bursicon-stimulated LGR2 cAMP reporter – cell-based, HEK293, CRE-luciferase reporter, cherry pick, set 2, dose response (AID 743343); type: functional;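 also: transfected cells were stimulated with diluted bursicon conditioned medium after compound addition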
[19] = blockade of melanocortin 4 receptor signaling – cell-based, plate reader, cherry pick, counter-screen for LGR2 antagonist project, dose response (AID 743444); type: functional;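 also: transfected HEK 293 cells stimulated with alpha-MSH peptide; potency of inhibitors of the alpha-MSH evoked signal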
[20] = general cell-killing toxicity readout – plate reader, dry powder samples, cytotoxicity control for PAX8 inhibitor project, dose response (AID 743021); type: functional, cell-based
Paired box protein Pax-8 = Paired box protein Pax-8 (Homo sapiens, UniProt Q06710); assay: PAX8 transcriptional activity inhibition in RMG-I – RMG-I cells, luciferase, cherry-pick, dose response (AID 687027); type: functional, cell-based;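 also: luciferase reporter driven by Pax8 target thyroperoxidase promoter measured by SteadyGlo luminescence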
Sequence of Paired box protein Pax-8 (Q06710 whole entry): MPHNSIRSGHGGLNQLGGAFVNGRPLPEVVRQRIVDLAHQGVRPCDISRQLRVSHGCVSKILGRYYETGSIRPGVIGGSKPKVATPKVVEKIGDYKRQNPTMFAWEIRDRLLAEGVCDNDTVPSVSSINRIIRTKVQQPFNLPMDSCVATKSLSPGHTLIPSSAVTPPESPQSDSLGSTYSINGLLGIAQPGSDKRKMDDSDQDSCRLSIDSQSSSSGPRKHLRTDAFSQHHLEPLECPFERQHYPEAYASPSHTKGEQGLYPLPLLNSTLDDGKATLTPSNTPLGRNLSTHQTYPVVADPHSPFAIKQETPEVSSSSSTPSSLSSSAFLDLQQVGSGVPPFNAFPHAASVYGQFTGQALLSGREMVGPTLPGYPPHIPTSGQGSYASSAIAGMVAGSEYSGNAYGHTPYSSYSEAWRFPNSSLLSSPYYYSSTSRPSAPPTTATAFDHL

T1 sequence (P49327 whole entry): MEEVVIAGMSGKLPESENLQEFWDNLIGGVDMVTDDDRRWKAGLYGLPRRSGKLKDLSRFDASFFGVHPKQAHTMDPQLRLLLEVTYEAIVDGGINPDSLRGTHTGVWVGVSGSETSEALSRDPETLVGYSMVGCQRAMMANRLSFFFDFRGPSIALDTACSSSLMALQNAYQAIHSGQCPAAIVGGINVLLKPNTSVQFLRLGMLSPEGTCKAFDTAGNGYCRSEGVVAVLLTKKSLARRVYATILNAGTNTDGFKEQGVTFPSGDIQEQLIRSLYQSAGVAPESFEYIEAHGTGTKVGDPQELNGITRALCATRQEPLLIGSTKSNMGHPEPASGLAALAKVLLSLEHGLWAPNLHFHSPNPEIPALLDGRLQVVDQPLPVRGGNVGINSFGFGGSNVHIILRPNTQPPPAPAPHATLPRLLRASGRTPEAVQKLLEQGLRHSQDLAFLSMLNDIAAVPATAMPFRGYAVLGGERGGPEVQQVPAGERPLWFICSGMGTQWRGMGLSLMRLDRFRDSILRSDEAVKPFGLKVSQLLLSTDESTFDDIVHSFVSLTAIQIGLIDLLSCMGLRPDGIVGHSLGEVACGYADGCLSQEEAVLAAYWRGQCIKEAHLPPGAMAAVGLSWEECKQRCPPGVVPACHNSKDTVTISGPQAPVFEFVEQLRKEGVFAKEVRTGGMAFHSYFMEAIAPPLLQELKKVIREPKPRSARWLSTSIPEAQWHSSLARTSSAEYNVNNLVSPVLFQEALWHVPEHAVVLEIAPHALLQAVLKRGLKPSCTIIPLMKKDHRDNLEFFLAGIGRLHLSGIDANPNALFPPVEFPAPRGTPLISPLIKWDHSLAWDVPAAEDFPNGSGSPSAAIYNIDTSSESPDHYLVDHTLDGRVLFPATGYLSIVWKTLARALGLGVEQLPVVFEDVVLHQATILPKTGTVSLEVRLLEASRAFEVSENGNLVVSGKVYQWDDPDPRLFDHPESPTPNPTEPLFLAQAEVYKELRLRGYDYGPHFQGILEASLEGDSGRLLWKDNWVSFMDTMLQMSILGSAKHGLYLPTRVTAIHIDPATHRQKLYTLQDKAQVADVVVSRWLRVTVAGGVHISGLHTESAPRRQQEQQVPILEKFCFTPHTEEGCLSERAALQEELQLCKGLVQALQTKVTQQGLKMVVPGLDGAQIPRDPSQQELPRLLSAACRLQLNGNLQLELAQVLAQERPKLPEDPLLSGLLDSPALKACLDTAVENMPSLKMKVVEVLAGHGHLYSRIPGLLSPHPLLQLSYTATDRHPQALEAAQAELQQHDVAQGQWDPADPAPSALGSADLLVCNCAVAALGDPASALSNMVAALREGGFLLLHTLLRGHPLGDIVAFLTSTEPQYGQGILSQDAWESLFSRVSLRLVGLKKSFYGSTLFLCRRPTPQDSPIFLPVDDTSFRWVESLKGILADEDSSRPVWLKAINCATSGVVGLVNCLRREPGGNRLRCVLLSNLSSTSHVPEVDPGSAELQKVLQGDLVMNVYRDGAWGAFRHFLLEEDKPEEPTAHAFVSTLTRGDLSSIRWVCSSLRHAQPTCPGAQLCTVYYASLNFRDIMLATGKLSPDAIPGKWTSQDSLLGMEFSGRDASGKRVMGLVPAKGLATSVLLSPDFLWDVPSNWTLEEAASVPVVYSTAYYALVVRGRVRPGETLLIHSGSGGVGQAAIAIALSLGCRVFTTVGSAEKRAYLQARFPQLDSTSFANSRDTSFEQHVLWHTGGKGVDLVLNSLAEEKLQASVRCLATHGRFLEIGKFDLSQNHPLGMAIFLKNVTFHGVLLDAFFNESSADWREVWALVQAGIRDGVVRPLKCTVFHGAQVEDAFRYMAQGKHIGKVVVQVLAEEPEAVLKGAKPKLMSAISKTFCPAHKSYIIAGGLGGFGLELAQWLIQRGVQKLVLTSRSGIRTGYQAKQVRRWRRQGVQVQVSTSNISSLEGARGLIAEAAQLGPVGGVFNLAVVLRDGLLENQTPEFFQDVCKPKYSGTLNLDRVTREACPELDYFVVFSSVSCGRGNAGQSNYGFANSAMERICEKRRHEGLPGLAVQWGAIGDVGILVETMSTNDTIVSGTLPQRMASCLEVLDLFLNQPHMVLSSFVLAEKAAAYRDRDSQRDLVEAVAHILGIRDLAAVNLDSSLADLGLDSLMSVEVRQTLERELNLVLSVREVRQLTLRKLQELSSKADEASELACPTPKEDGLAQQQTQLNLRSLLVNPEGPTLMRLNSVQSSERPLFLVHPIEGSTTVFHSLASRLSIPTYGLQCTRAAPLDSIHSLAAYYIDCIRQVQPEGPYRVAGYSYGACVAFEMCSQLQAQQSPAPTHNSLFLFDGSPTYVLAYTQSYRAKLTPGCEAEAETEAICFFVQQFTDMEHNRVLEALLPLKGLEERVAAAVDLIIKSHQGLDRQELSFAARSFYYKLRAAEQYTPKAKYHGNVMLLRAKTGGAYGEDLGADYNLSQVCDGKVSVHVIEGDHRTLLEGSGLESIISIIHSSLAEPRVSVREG

CC(C)(C)OC(=O)CNC(=O)c1[nH]cnc1C(=O)N[C@@H](CCCCNC(=O)OC(C)(C)C)C(=O)OC(C)(C)C
IC50 (Fatty acid synthase [1]): 0.517 µM (active)
IC50 (Fatty acid synthase [2]): 0.364 µM (active)

COC(=O)Cn1cc(/C=C2\C(=O)NC(=O)N(c3ccc(OC)cc3)C2=O)c2ccccc21
EC50 [3]: 69.1 µM (active)
EC50 [4]: 6.99 µM (active)
EC50 [5]: > 99 µM (inactive)
EC50 [6]: 5.57 µM (active)
EC50 [7]: 71.4 µM (inactive)

O=C(CN1CCN(C(=O)COc2cccc(F)c2)CC1)Nc1ccc(Cl)c(C(F)(F)F)c1
CC50 [8]: > 40 µM (active)

CC(C)(C)c1ccc(OCCC(=O)OCC(=O)NCc2ccccc2)cc1
IC50 (Fatty acid synthase [1]): 6.55 µM (active)
IC50 (Fatty acid synthase [2]): 6.7 µM (active)

O=C(CCn1c2c(c3ccccc31)CCCC2)NNC(=O)c1ccc(Cl)c([N+](=O)[O-])c1
IC50 [9]: 0.798 µM (active)

O=C(OCC(=O)N1CCc2ccccc2C1)c1ccc(Cl)c([N+](=O)[O-])c1
IC50 (Fatty acid synthase [1]): 5.45 µM (active)
IC50 (Fatty acid synthase [2]): 2.41 µM (active)

CCN1CCN(Cc2ccc(NC(=O)c3cc(NC(=O)c4cncc(-c5cccs5)c4)cc(OC)c3)cc2C(F)(F)F)CC1
EC50 [10]: 8.93 µM (active)
EC50 [11]: > 120 µM (not active)
AC50 [12]: 7.38 µM (active)
CC50 [8]: 8.62 µM (active)
IC50 [13]: > 20 µM (inactive)
EC50 [14]: > 120 µM (not active)

CCCCOc1ccc(C(=O)NCC(=O)NCC(c2cccs2)N2CCOCC2)cc1 (stereo not given)
IC50 [9]: > 100 µM (inactive)

Cc1cc(Br)ccc1NC(=O)C(C)c1ccc([N+](=O)[O-])cc1 (stereo not given)
IC50 (Fatty acid synthase [1]): 31.9 µM (inactive)
IC50 (Fatty acid synthase [2]): 18.8 µM (active)

Cn1c(SCC(=O)N/N=C/c2ccc([N+](=O)[O-])s2)nnc1-c1ccc(Cl)cc1
EC50 [15]: 4.82 µM (active)
AC50 [16]: 2.55 µM (active)
EC50 [17]: 4.91 µM (active)
AC50 (INS1): 9.33 µM (active)

Cc1ccc2nc(-c3ccc(Br)cc3)cn2c1
AC50 [18]: 0.662 µM (active)
AC50 [19]: 0.704 µM (active)
AC50 [20]: 24.6 µM (active)
AC50 (Paired box protein Pax-8): 11.2 µM (active)
